Reference: PubChem BioAssay AID220 (DTP/NCI, 2004)
Records with an inconclusive call do not appear.

System: CD8F1 mice, subcutaneous mammary adenocarcinoma, T/C%
Assay: NCI In Vivo Anticancer Drug Screen. Data for tumor model Mammary Adenocarcinoma CD8F1 (subcutaneous) in CD8F1
Settings: higher = larger tumour
Outline: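 Mice carrying transplanted tumors received test compound, and survival or tumor size was recorded. Each value is the treated-group measurement divided by the corresponding measurement in vehicle-dosed controls.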

## CC(=O)O[C@H]1C(=O)[C@@]2(C)[C@H]([C@H](OC(=O)c3ccccc3)[C@]3(O)C[C@H](OC(=O)[C@H](O)[C@@H](NC(=O)c4ccccc4)c4ccccc4)C(C)=C1C3(C)C)[C@]1(OC(C)=O)CO[C@@H]1C[C@@H]2O
endpoint: median tumor weight (est.), dose: 15.0 mg/kg/injection, schedule: Q07DX005 (ip), vehicle: Klucel (hydroxypropylcellulose) (HPC)
  T/C: 57 % of control

## COC1CC(C)C(OC)C2=CC(=O)C=C(NC(=O)/C(C)=C/C=C\C(C)C(OC(N)=O)/C(C)=C\C(C)C1OC)C2=O (centres undefined)
endpoint: median tumor weight change, dose: 6.25 mg/kg/injection, schedule: Q01DX001 (ip), vehicle: saline + alcohol
  T/C: 152 % of control
endpoint: median tumor weight change, dose: 12.5 mg/kg/injection, schedule: Q01DX001 (ip), vehicle: saline + alcohol
  T/C: 91 % of control
endpoint: median tumor weight change, dose: 25.0 mg/kg/injection, schedule: Q01DX001 (ip), vehicle: saline + alcohol
  T/C: 72 % of control

## N=C(N)CCCCCCCCC(=N)N
endpoint: median tumor weight (est.), dose: 3.12 mg/kg/injection, schedule: Q07DX005 (ip), vehicle: Klucel (hydroxypropylcellulose) (HPC)
  T/C: 67 % of control
endpoint: median tumor weight (est.), dose: 3.12 mg/kg/injection, schedule: Q07DX005 (ip), vehicle: saline
  T/C: 86 % of control
endpoint: median tumor weight (est.), dose: 6.25 mg/kg/injection, schedule: Q07DX005 (ip), vehicle: Klucel (hydroxypropylcellulose) (HPC)
  T/C: 123 % of control
endpoint: median tumor weight (est.), dose: 6.25 mg/kg/injection, schedule: Q07DX005 (ip), vehicle: saline
  T/C: 78 % of control
endpoint: median tumor weight (est.), dose: 12.5 mg/kg/injection, schedule: Q07DX005 (ip), vehicle: Klucel (hydroxypropylcellulose) (HPC)
  T/C: 34 % of control
endpoint: median tumor weight (est.), dose: 12.5 mg/kg/injection, schedule: Q07DX005 (ip), vehicle: saline
  T/C: 76 % of control
endpoint: median tumor weight (est.), dose: 25.0 mg/kg/injection, schedule: Q07DX005 (ip), vehicle: Klucel (hydroxypropylcellulose) (HPC)
  T/C: 31 % of control
endpoint: median tumor weight (est.), dose: 25.0 mg/kg/injection, schedule: Q07DX005 (ip), vehicle: saline
  T/C: 28 % of control
endpoint: median tumor weight change, dose: 8.0 mg/kg/injection, schedule: Q01DX001 (ip), vehicle: saline
  T/C: 61 % of control
endpoint: median tumor weight change, dose: 15.63 mg/kg/injection, schedule: Q01DX001 (ip), vehicle: saline
  T/C: 77 % of control
endpoint: median tumor weight change, dose: 16.0 mg/kg/injection, schedule: Q01DX001 (ip), vehicle: saline
  T/C: 186 % of control
endpoint: median tumor weight change, dose: 31.25 mg/kg/injection, schedule: Q01DX001 (ip), vehicle: saline
  T/C: 76 % of control
endpoint: median tumor weight change, dose: 32.0 mg/kg/injection, schedule: Q01DX001 (ip), vehicle: saline
  T/C: 48 % of control

## C=C1C(=O)OC2CC(C)C3C4OC4C(O)C3(C)C(O)C12 (centres undefined)
endpoint: median tumor weight change, dose: 62.5 mg/kg/injection, schedule: Q01DX001 (ip), vehicle: saline
  T/C: 119 % of control
endpoint: median tumor weight change, dose: 125.0 mg/kg/injection, schedule: Q01DX001 (ip), vehicle: saline
  T/C: 80 % of control
endpoint: median tumor weight change, dose: 250.0 mg/kg/injection, schedule: Q01DX001 (ip), vehicle: saline
  T/C: 74 % of control
endpoint: median tumor weight change, dose: 500.0 mg/kg/injection, schedule: Q01DX001 (ip), vehicle: saline
  T/C: 88 % of control

## O=C(/C=C(\Cl)C(=O)NO)NO
endpoint: median tumor weight change, dose: 62.5 mg/kg/injection, schedule: Q01DX001 (ip), vehicle: suspension in saline
  T/C: 111 % of control
endpoint: median tumor weight change, dose: 125.0 mg/kg/injection, schedule: Q01DX001 (ip), vehicle: suspension in saline
  T/C: 79 % of control
endpoint: median tumor weight change, dose: 250.0 mg/kg/injection, schedule: Q01DX001 (ip), vehicle: suspension in saline
  T/C: 83 % of control

## C[C@@]1(CO)[C@H](O)CC[C@@]2(C)[C@H]1CC[C@H]1C[C@@H]3C[C@@]12CC[C@@]3(O)COC(=O)CN
endpoint: median tumor weight change, dose: 9.88 mg/kg/injection, schedule: Q01DX001 (ip), vehicle: Klucel (hydroxypropylcellulose) (HPC)
  T/C: 78 % of control
endpoint: median tumor weight change, dose: 18.75 mg/kg/injection, schedule: Q01DX001 (ip), vehicle: Klucel (hydroxypropylcellulose) (HPC)
  T/C: 68 % of control
endpoint: median tumor weight change, dose: 37.5 mg/kg/injection, schedule: Q01DX001 (ip), vehicle: Klucel (hydroxypropylcellulose) (HPC)
  T/C: 98 % of control
endpoint: median tumor weight change, dose: 75.0 mg/kg/injection, schedule: Q01DX001 (ip), vehicle: Klucel (hydroxypropylcellulose) (HPC)
  T/C: 84 % of control
endpoint: median tumor weight change, dose: 62.5 micrograms/kg/injection, schedule: Q01DX001 (ip), vehicle: saline + alcohol
  T/C: 170 % of control
endpoint: median tumor weight change, dose: 125.0 micrograms/kg/injection, schedule: Q01DX001 (ip), vehicle: saline + alcohol
  T/C: 90 % of control
endpoint: median tumor weight change, dose: 250.0 micrograms/kg/injection, schedule: Q01DX001 (ip), vehicle: saline + alcohol
  T/C: 115 % of control
endpoint: median tumor weight change, dose: 1000.0 micrograms/kg/injection, schedule: Q01DX001 (ip), vehicle: saline + alcohol
  T/C: 106 % of control

## COC1C(C)OC(OC2CC(C)(O)Cc3cc4c(c(O)c32)C(=O)c2c(O)cc3c(c2C4=O)OC2OC3(C)C(O)C(N(C)C)C2O)C(OC)C1(C)OC (centres undefined)
endpoint: median tumor weight (est.), dose: 2.5 mg/kg/injection, schedule: Q07DX005 (ip), vehicle: other
  T/C: 161 % of control
endpoint: median tumor weight (est.), dose: 5.0 mg/kg/injection, schedule: Q07DX005 (ip), vehicle: other
  T/C: 94 % of control
endpoint: median tumor weight (est.), dose: 10.0 mg/kg/injection, schedule: Q07DX005 (ip), vehicle: other
  T/C: 57 % of control

## COC1=C(OC)C(=O)C(Sc2ccc3ccccc3c2)=CC1=O
endpoint: median tumor weight (est.), dose: 12.5 mg/kg/injection, schedule: Q07DX005 (ip), vehicle: saline with Tween-80
  T/C: 115 % of control
endpoint: median tumor weight (est.), dose: 25.0 mg/kg/injection, schedule: Q07DX005 (ip), vehicle: saline with Tween-80
  T/C: 84 % of control
endpoint: median tumor weight (est.), dose: 50.0 mg/kg/injection, schedule: Q07DX005 (ip), vehicle: saline with Tween-80
  T/C: 122 % of control
endpoint: median tumor weight (est.), dose: 200.0 mg/kg/injection, schedule: Q07DX005 (ip), vehicle: saline with Tween-80
  T/C: 92 % of control
